Earlier results in patent US10251409B2, “Mixtures of matter” (SYMRISE AG, priority 2013, dated 2019).

Conditions: compared with sugar

## C=C1C[C@@]23CC[C@H]4[C@@](C)(CCC[C@@]4(C)C(=O)O[C@@H]4O[C@H](CO)[C@@H](O)[C@H](O)[C@H]4O)[C@@H]2CC[C@]1(O[C@@H]1O[C@H](CO)[C@@H](O)[C@H](O[C@@H]2O[C@H](CO)[C@@H](O)[C@H](O)[C@H]2O)[C@H]1O[C@@H]1O[C@H](CO)[C@@H](O)[C@H](O)[C@H]1O)C3 [rebaudioside A]
  Sweetening power relative to sugar: up to 450 times
